Measured values: patent US20120101057A1, “COMBINED THERAPY OF COLORECTAL CARCINOMA” (INSTYTUT FARMACEUTYCZNY, priority 2009, published 2012)

Tests used:
MC38/0 = test: antiproliferative activity of 5-fluorouracil combined with vitamin D analogues in vitro, 120 h; assay type: cell-based, mouse; design: key: +: sub-additive effect; ++: additive effect; +++: synergistic effect; −: antagonism; conditions: 120-hours exposure
Method: After 24 h culture, the cells of large intestine carcinoma were treated simultaneously with calcitriol or vitamin D analogues and 5-fluorouracil for 120 hours. […] Statistical analysis of the obtained results of inhibition of proliferation was carried out by analysis of percent of inhibition of proliferation in individual combinations of compounds.
(§1) Hypothetical value was calculated according to a formula: […]
(§2) wherein: % H—hypothetical inhibition of proliferation by combination of compounds [Vo]; % cyt—inhibition of proliferation by 5-Fu alone [%]; % vit—inhibition of proliferation by calcitriol or cholecalciferol analogue alone [%];
(§3) Additive effect occurs when the experimental and hypothetical value are similar, sub-additive effect occurs when experimental value is lower than hypothetical value but above value for a cytostatic alone, and antagonistic action—when a value determined for a cytostatic used alone is above experimental value for combination of both compounds. [Peters G. J. i wsp.: Pharmacol Ther 2000, 87, 227-253]

LoVo = test: as above; assay type: cell-based, human; design: key: +: sub-additive effect; ++: additive effect; +++: synergistic effect; −: antagonism; conditions: analogue 100 nM + 5-fluorouracil 1 μg/ml, 120-hours exposure
Method: (§4) After 24 h culture, the cells of large intestine carcinoma were treated simultaneously with calcitriol or vitamin D analogues and 5-fluorouracil for 120 hours. The final concentration of vitamin D analogues was 100 nM, and of 5-fluorouracil—-1 μg/ml or 0.1 μg/ml. Statistical analysis of the obtained results of inhibition of proliferation was carried out by analysis of percent of inhibition of proliferation in individual combinations of compounds.
as §1, §2, §3

HT-29 = test: as above; assay type: cell-based, human; design: key: +: sub-additive effect; ++: additive effect; +++: synergistic effect; −: antagonism; conditions: analogue 100 nM + 5-fluorouracil 0.1 μg/ml, 120-hours exposure
Method: as §4, §1, §2, §3

CaCo-2 = test: as above; assay type: cell-based, human; design: key to Type of reaction between vitamin D analogues and 5-fluorouracil: +: sub-additive effect; ++: additive effect; +++: synergistic effect; −: antagonism; conditions: for Type of reaction between vitamin D analogues and 5-fluorouracil: CaCo-2, analogue 100 nM + 5-fluorouracil 1 μg/ml, 120-hours exposure
Method: as §4, §1, §2, §3

[1] = rats; cited from earlier work
[2] = test system: murine colorectal carcinoma C38; test: tumour growth in mice with murine colorectal carcinoma C38 treated with capecitabine; assay type: in vivo, Mice of C57BL/6 strain; conditions: for TGI / Tumours MEAN ± SD: C38; for tumour C38 mass in comparison with control: single agent; for tumour mass, combination with capecitabine in comparison with capecitabine alone / type of interaction in inhibition of tumour growth with capecitabine: analogue combined with capecitabine
colorectal cancer HT-29 = test: tumour growth in mice with colorectal cancer HT-29 treated with 5-fluorouracil; assay type: in vivo; conditions: for TGI / Tumours MEAN ± SD: HT-29, 49 day of experiment; for HT-29 tumour mass in comparison with control: single agent; for HT-29 tumour mass, combination with 5-FU in comparison with 5-FU alone / type of interaction in inhibition of HT-29 tumour growth: analogue combined with 5-FU
[3] = test system: murine colorectal cancer C38; test: tumour growth in mice with colorectal cancer C38 treated with 5-fluorouracil (1a); assay type: in vivo, Mice of C57BL/6 strain; conditions: for TGI / Tumours MEAN ± SD: C38, 28 day of experiment; for Tumours MEAN ± SD: 5-FU 150 mg/kg i.p., PRI-2191 2 ug/kg s.c., PRI-2205 10 μg/kg s.c.; for volume of tumours C38 in comparison with control: single agent; for volume of tumours C38, combination with 5-FU in comparison with 5-FU: analogue combined with 5-FU
[4] = test system: murine colorectal cancer C38; test: survival time and tumour growth in mice with colorectal cancer C38 treated with 5-FU (1b); assay type: in vivo; conditions: for ILS %: 5-FU 75 mg/kg i.p. day 1, PRI-2191 2, PRI-2205 10 μg/kg/day 3 times per week; for TGI (d20) %: day 20; for C38 tumour mass in comparison with control: single agent; for C38 tumour mass, combination with 5-FU in comparison with 5-FU: analogue combined with 5-FU
Method: Mice with colorectal cancer C38 were treated with 5-FU given in a single administration, intraperitoneally on day 1 at a dose of 75 mg/kg.

[5] = test system: murine colorectal cancer MC38/EGFP; test: burden of metastases in regional lymph nodes, MC38/EGFP fluorescence (1c); assay type: in vivo, mice; conditions: for metastases in regional lymph nodes (intensity of fluorescence), combined treatment with 5-FU: 5-FU 75 mg/kg i.p. with PRI-2191 1 μg/kg or PRI-2205 10 μg/kg s.c., day 59; for metastases in regional lymph nodes (fluorescence) versus control mice: analogue only, day 50
Source text: Cancer cells of murine colorectal cancer MC38/EGFP (cells expressing a protein of green fluorescence) were implanted subcutaneously in an amount of 1×10^6 cells/mouse. […] Compounds were given subcutaneously, 3 times a week. […] Then on day 59 of experiment, lymph nodes from mice of remaining were taken for analysis. Using NightOWL II LB 983 apparatus, photographs of isolated lymph nodes were taken in order to visualize cancer cells in sites of metastases.
Intensity of the measured fluorescence is related to a burden of metastases (the number of cells with fluorescence).

[6] = calcium level in blood serum of mice treated with 5-FU and vitamin D analogues; assay type: in vivo, Mice of BALB/c strain; conditions: BALB/c; 5-FU 50 mg/kg i.p. day 1; PRI-2191 2 or PRI-2205 10 μg/kg/day 3 times a week
Method: Mice of BALB/c strain were treated with 5-FU given in a single administration, intraperitoneally on day 1 at a dose of 50 mg/kg. […] Calcium level was evaluated (Arsezano 3 method, Olympus AU400; Olympus America Inc., Melville, NY, USA) in blood serum of treated and control mice.

[7] = body mass of mice under combined therapy; assay type: in vivo; conditions: combination with 5-FU
[8] = MC38/0, analogue 100 nM + 5-fluorouracil 0.1 μg/ml
[9] = analogue 100 nM + 5-fluorouracil 0.01 μg/ml, cell line of this column unclear (MC38/0 or CaCo-2)
[10] = 18 day of experiment, KCY 250 mg/kg/day oral, PRI-2191 1, PRI-2205 10 μg/kg/day s.c.

Compound | Type of reaction between vitamin D analogues and 5-fluorouracil (MC38/0; [8]) | Type of reaction between vitamin D analogues and 5-fluorouracil (MC38/0; [9]) | Type of reaction between vitamin D analogues and 5-fluorouracil (LoVo) | Type of reaction between vitamin D analogues and 5-fluorouracil (HT-29) | Type of reaction between vitamin D analogues and 5-fluorouracil (CaCo-2) | Tumours MEAN ± SD [2, 10] | tumour C38 mass in comparison with control [2] | TGI (colorectal cancer HT-29) | Tumours MEAN ± SD (colorectal cancer HT-29) | HT-29 tumour mass in comparison with control (colorectal cancer HT-29) | TGI [3] | Tumours MEAN ± SD [3] | volume of tumours C38 in comparison with control [3] | ILS % ([4]; C38) | TGI (d20) % ([4]; C38) | C38 tumour mass in comparison with control [4] | HT-29 tumour mass, combination with 5-FU in comparison with 5-FU alone (colorectal cancer HT-29) | type of interaction in inhibition of HT-29 tumour growth (colorectal cancer HT-29) | volume of tumours C38, combination with 5-FU in comparison with 5-FU [3] | C38 tumour mass, combination with 5-FU in comparison with 5-FU [4] | further results
C=C1/C(=C\C=C2/CCC[C@]3(C)[C@@H]([C@H](C)CCCC(C)(C)O)CC[C@@H]23)C[C@@H](O)C[C@@H]1O [CALCITRIOL, 1,25-dihydroxycholekalciferol] | +++ | +++ | +++ | +++ | − |  |  |  |  |  |  |  |  |  |  |  |  |  |  |  | interaction with 5-fluorouracil (CaCo-2; Caco-2 cell line, 120-hour exposure): antagonism
C=C1/C(=C\C=C2/CCC[C@]3(C)[C@@H]([C@H](C)/C=C/[C@@H](O)C4CC4)CC[C@@H]23)C[C@@H](O)C[C@@H]1O [PRI-2201, (1S,3R,5Z,7E,22E,24S)-24-cyclopropyl-9,10-secochola-5,7,10(19),22-tetraeno-1,3,24-triol] | +++ | +++ | +++ | +++ | +++ |  |  |  |  |  |  |  |  |  |  |  |  |  |  |  | lesser influence on calcium metabolism than calcitriol [1]: 100-200 fold
CCCCCOC(=O)Nc1nc(=O)n([C@@H]2O[C@H](C)[C@@H](O)[C@H]2O)cc1F [KCY, capecitabine] |  |  |  |  |  | 0.41 ± 0.33 g | decreases tumour C38 mass in comparison with control |  |  |  |  |  |  |  |  |  |  |  |  |  | TGI ([2]; 18 day of experiment): 47%; TGI ([2]; 29 day of experiment): 35%; Tumours MEAN ± SD ([2]; 29 day of experiment): 1.65 ± 1.39 g
O=c1[nH]cc(F)c(=O)[nH]1 [5-FU, 5-fluorouracil] |  |  |  |  |  |  |  | 47% | 1.23 ± 0.30 g | decreases in a statistically significant manner HT-29 tumour in comparison with control | 84% | 0.19 ± 0.19 g | decreases in statistically significant manner volume of tumours C38 in comparison with control | 21% | 64% | decreases in a statistically significant manner C38 tumour mass in comparison with control |  |  |  |  | 
C=C1/C(=C/C=C2\CCC[C@]3(C)[C@@H]([C@H](C)/C=C/[C@@H](O)C4CC4)CC[C@@H]23)C[C@@H](O)C[C@@H]1O [PRI-2205, (1S,3R,5E,7E,22E,24S)-24-cyclopropyl-9,10-secochol-5,7,10(19),22-tetraeno-1,3,24-triol] | +++ | +++ | +++ | +++ | +++ | 0.81 ± 0.60 g | does not influence tumour mass | 31% | 1.88 ± 0.78 g | did not influence tumour mass | 29% | 1.06 ± 0.84 g | inhibits C38 tumours growth from 18 to 28 day of measurement | 2% | 0% | does not influence tumour mass | influences significantly also tumour mass in comparison with 5-FU alone | synergism | decreases in statistically significant manner volume of tumours also in comparison with 5-FU | in a statistically significant manner decreases tumour mass also in comparison with 5-FU | influence on survival time of mice treated with 5-FU ([4]; C38, analogue added to 5-FU, p<0.05): prolongs survival of mice treated with 5-FU; ILS Effect ([4]; C38, combination with 5-FU, survival time): synergistic; tumour mass, combination with capecitabine in comparison with capecitabine alone [2]: influences significantly tumour mass in comparison with capecitabine alone; type of interaction in inhibition of tumour growth with capecitabine [2]: synergism; metastases in regional lymph nodes (intensity of fluorescence), combined treatment with 5-FU [5]: did not influence the metastatic process; metastases in regional lymph nodes (fluorescence) versus control mice [5]: did not differ significantly
C=C1/C(=C\C=C2/CCC[C@]3(C)[C@@H]([C@H](C)CC[C@@H](O)C(C)C)CC[C@@H]23)C[C@@H](O)C[C@@H]1O [PRI-2191, 1,24(R)-dihydroxycholekalciferol] | +++ | +++ | +++ | +++ | +++ | 0.75 ± 0.32 g | does not influence tumour mass | 16% | 2.19 ± 1.51 g | did not influence tumour mass | 16% | 0.88 ± 0.49 g | inhibits 38C tumours growth in the last four measurements | 52% | 44% | inhibits C38 tumour growth only in two last measurements | influences significantly also tumour mass in comparison with 5-FU alone | synergism | decreases in statistically significant manner volume of tumours also in comparison with 5-FU | in a statistically significant manner decreases tumour mass also in comparison with 5-FU | calcium level in blood serum of mice [6]: calcium level increases in statistically significant degree; tumour mass, combination with capecitabine in comparison with capecitabine alone [2]: influences significantly tumour mass in comparison with capecitabine alone; type of interaction in inhibition of tumour growth with capecitabine [2]: a synergistic effect is seen mainly in the last days of the experiment; body mass of mice treated with 5-FU in combination with vitamin D analogue, versus 5-FU alone [7]: increased loss of body mass; metastases in regional lymph nodes (intensity of fluorescence), combined treatment with 5-FU [5]: increased anti-metastatic action; metastases in regional lymph nodes (fluorescence) versus control mice [5]: did not differ significantly
